Earlier results in patent US10822295B2, “Menaquinol compositions and methods of treatment” (Epizon Pharma, Inc., priority 2018, dated 2020).

Key:
incidence of fractures = conditions: in vivo
[1] = compared to MK-4
normal blood coagulation = conditions: compared to vitamin K1 and MK-4

half-life in serum [1] | Structure (SMILES) | incidence of fractures (incidence of fractures) | effects on normal blood coagulation (normal blood coagulation)
 | CC(C)=CCC/C(C)=C/CC/C(C)=C/CC/C(C)=C/CC1=C(C)C(=O)c2ccccc2C1=O [MK-4, menaquinone-4] | decrease the incidence of fractures | 
long half-life | CC(C)=CCC/C(C)=C/CC/C(C)=C/CC/C(C)=C/CC/C(C)=C/CC/C(C)=C/CC/C(C)=C/CC1=C(C)C(=O)c2ccccc2C1=O [MK-7, menaquinone-7] |  | greater and longer lasting
